The values that follow come from ChEMBL document CHEMBL5344474, “Molecular editing of NSC-666719 enabling discovery of benzodithiazinedioxide-guanidines as anticancer agents” (RSC Med Chem, 2024).

As usually defined, the IC50 is the concentration needed to halve the response being measured. A high value points to lower potency.

A value given as a limit tells only on which side of the number the result lay.

Data set [1] can be described thus: Cytotoxicity against HEK293 cells incubated for 72 hrs by MTT assay. As to conditions: human. A general note: Tetrazolium dyes change colour on reduction, which living cells bring about.
Data set [2] deals with MCF7. Description: Antiproliferative activity against human MCF7 cells incubated for 72 hrs by MTT assay. The note with it: MCF7, 72 h.
The test system of the next data set is SCC-9. Briefly: Antiproliferative activity against human SCC-9 cells incubated for 72 hrs by MTT assay. The note with it: SCC-9, 72 h.
A short description of data set [3]: Selectivity index, ratio of IC50 for HEK293 cells to IC50 for human HCT-116 cells. The note with it: HEK293 cells versus HCT-116 cells.
The next data set deals with MDA-MB-231. Briefly: Antiproliferative activity against human MDA-MB-231 cells incubated for 72 hrs by MTT assay. As to conditions: MDA-MB-231, 72 h.
The subject of another data set is HCT-116. Description: Antiproliferative activity against human HCT-116 cells incubated for 72 hrs by MTT assay. The note with it: HCT-116, 72 h.
Data set [4] can be described thus: Selectivity index, ratio of IC50 for HEK293 cells to IC50 for human MCF7 cells. As to conditions: HEK293 cells versus MCF7 cells.
The nature of data set [5]: Selectivity index, ratio of IC50 for HEK293 cells to IC50 for human MDA-MB-231 cells. As to conditions: HEK293 cells versus MDA-MB-231 cells.
The subject of data set [6] is MCF7. Description: cells. The note with it: Homo sapiens, MCF7, 48 h, read-out: Activity.
Description: Induction of apoptosis in human MCF7 cells assessed as viable cells at 0.8 uM incubated for 48 hrs by Annexin-V/FITC staining based flow cytometry analysis (Rvb = 99.3 +/- 0.12 %)
In data set [7] the test system is MCF7. Description: cells. The note with it: Homo sapiens, MCF7, 48 h, read-out: Activity. The source holds these as a separate data set.
Description: Induction of apoptosis in human MCF7 cells assessed as viable cells at 0.5 uM incubated for 48 hrs by Annexin-V/FITC staining based flow cytometry analysis (Rvb = 99.3 +/- 0.12 %)
The subject of data set [8] is MCF7. Briefly: cells. As to conditions: Homo sapiens, MCF7, 48 h, read-out: Activity. This is another data set of the same source.
Description: Induction of apoptosis in human MCF7 cells assessed as viable cells at 2 uM incubated for 48 hrs by Annexin-V/FITC staining based flow cytometry analysis (Rvb = 99.3 +/- 0.12 %)

With `Cc1cc2c(cc1Cl)SC(/N=C(/N)Nc1cnc3ccccn3c1=O)=NS2(=O)=O`, the IC50 at 72 h in data set [1] stood at 66.5 µM. The IC50 worked out at 1 µM in the data set on MCF7 [2], 0.9 µM with SCC-9, 2.5 µM with MDA-MB-231 and 4 µM in the data set on HCT-116. For the same compound, the selectivity ratio in data set [3], in data set [4] and in data set [5] was over 65 each time.
With `Cc1cc2c(cc1Cl)SC(/N=C(/N)Nc1ccnc3cc(Cl)ccc13)=NS2(=O)=O`, the IC50 at 72 h in data set [1] stood at 65 µM. The IC50 in the data set on MCF7 [2] amounted to 0.8 µM; with SCC-9, 1 µM; with MDA-MB-231 it was 2.1 µM; in the data set with HCT-116 it was 2.8 µM. Besides, in the data set with MCF7 [6], the viability at 0.8 µM was 27.4%. Further, the viability at 0.5 µM in the data set with MCF7 [7] came to 64.9%. In addition, the selectivity ratio in [3], in data set [4] and in data set [5] was over 65 throughout. In addition, the viability at 2 µM with MCF7 [8] stood at 14.8%.
Take `Cc1cc(S(=O)(=O)Nc2nc(Nc3cncc4ccccc34)n[nH]2)c(S)cc1Cl`: the IC50 in the data set with MCF7 [2] stood at 1.8 µM; in the data set with SCC-9, 2.1 µM; with MDA-MB-231, 2.6 µM; with HCT-116, 3.8 µM. Moreover, the selectivity ratio in data set [3], in data set [4] and in data set [5] was over 65 each time.
For the compound `Cc1cc(S(=O)(=O)Nc2nc(Nc3ccc4ccccc4c3)n[nH]2)c(S)cc1Cl`, the IC50 in the data set on MCF7 [2] was determined as 4.4 µM; with SCC-9 it was 4 µM; in the data set with MDA-MB-231, 5.5 µM; in the data set with HCT-116, 4.9 µM.
On to `Cc1cc(S(=O)(=O)Nc2nc(NC(=O)c3ccc4ccccc4c3)n[nH]2)c(S)cc1Cl`, for which the IC50 with MCF7 [2] amounted to 2.8 µM; in the data set on SCC-9, 2.6 µM; in the data set on MDA-MB-231, 3.2 µM; in the data set with HCT-116, 4.1 µM. Also, the selectivity ratio in data set [3], in [4] and in [5] was over 65 throughout.
With `Cc1cc2c(cc1Cl)SC(/N=C(/N)Nc1ccc(N3CCOCC3)cc1)=NS2(=O)=O`, inhibition in data set [1] was half-maximal at 70.1 µM (IC50 at 72 h). Also, the IC50 with MCF7 [2] was found to be 1.1 µM; in the data set with SCC-9, 1.2 µM; in the data set on MDA-MB-231 it was 2.4 µM; with HCT-116 it was 4.4 µM. The selectivity ratio in [3], in [4] and in data set [5] was over 65 in each case.
`Cc1cc2c(cc1Cl)SC(/N=C(/N)Nc1cccc3cnccc13)=NS2(=O)=O` had an IC50 at 72 h in data set [1] of 72.2 µM. The IC50 is 1.3 µM in the data set on MCF7 [2], 1.2 µM in the data set with SCC-9, 2.6 µM in the data set on MDA-MB-231 and 3.2 µM in the data set on HCT-116. Also, the selectivity ratio in [3], in data set [4] and in [5] was over 65 each time.
As for `Cc1cc2c(cc1Cl)SC(/N=C(/N)Nc1cncc3ccccc13)=NS2(=O)=O`, the results for the IC50 in the data set on MCF7 [2] and with MDA-MB-231 were 3 µM and 5.3 µM, respectively. For the same compound, the selectivity ratio in data set [3], in [4] and in data set [5] was over 65 throughout.
For the compound `Cc1cc(S(=O)(=O)Nc2nc(Nc3cccc4ncccc34)n[nH]2)c(S)cc1Cl`, the IC50 worked out at 7.2 µM in the data set on MCF7 [2] and 8.6 µM with MDA-MB-231. The selectivity ratio in [3], in [4] and in data set [5] was over 65 each time.
